Measured values from patent publication US9364566B2, “Aqueous formulation for selective targeting and delivering gene to cancer cells” (Council of Scientific and Industrial Research, priority 2006, dated 2016).

System: non-cancer cells
Assay: Toxicity to non-cancer cells
Assay type: cell-based
Conditions: at the concentration at which dexamethasone is used in the formulation
Source text: In the context the present invention stands with complete patentability because the formulation uses our own patented cationic lipid along side a secondary co-lipid dexamethasone, and a common, generic, glucocorticoid. The dexamethasone is not modified at all and is used as such. […] The use of dexamethasone for the targeted gene delivery to cancer is not documented in any of these papers.
Cell-Culture—MCF-7, CHO, A549 cells were purchased from National Center for Cell Sciences (Pune, India) and were mycoplasma free. Cells were cultured in DMEM medium (Sigma Chemical Co., St. Louis, Mo.) containing 10% fetal bovine serum (Sigma Chemical Co., St. Louis, Mo.) and 1% penicillin-streptomycin at […] in a humidified atmosphere of 5% CO2 in air. Cultures of 85-90% confluency were used for all of the experiments. The cells were trypsinized, counted, subcultured in 96-well plates for transfection and viability studies. The cells were allowed to adhere overnight before they were used for experiments.

C[C@@H]1C[C@H]2[C@@H]3CCC4=CC(=O)C=C[C@]4(C)[C@@]3(F)[C@@H](O)C[C@]2(C)[C@@]1(O)C(=O)CO [dexamethasone]
toxicity to non-cancer cells: did not induce any toxicity
